Data as given in patent US8697662B2, “Methods for treating Kaposi sarcoma” (PTC Therapeutics, Inc., priority 2009, dated 2014).
Marks after values point to notes of the source that are not given here.

Legend:
[1] = tested on: hypoxia-inducible endogenous VEGF expression; test: Hypoxia-inducible endogenous VEGF expression ELISA in HeLa cells, dose-response EC50 (Table 3); assay type: cell-based; settings: Homo sapiens, hypoxic conditions (1% O2), VEGF ELISA of conditioned media
Description: The ability of the Compounds to modulate hypoxia-inducible endogenous VEGF expression may be analyzed as follows. VEGF protein levels may be monitored by an ELISA assay (R&D Systems). Briefly, HeLa cells may be cultured for 24-48 hours under hypoxic conditions (1% O2, 5% CO2, balanced with nitrogen) in the presence or absence of a Compound. The conditioned media may then be assayed by ELISA, and the concentration of VEGF calculated from the standard ELISA curve of each assay.
A dose-response analysis may be performed using the ELISA assay and conditions described above. The conditions for the dose-response ELISA are analogous to those described above. A series of, e.g., seven different concentrations may be analyzed. In parallel, a dose-response cytotoxicity assay may be performed using Cell Titer Glo (Promega) under the same conditions as the ELISA to ensure that the inhibition of VEGF expression was not due to the cytotoxicity.

HeLa cells = test: […]-GLO luminescent cell viability assay in HeLa cultures; assay type: cell-based, human; settings: any concentration tested
Description: Experimental Design. HeLa (human cervical carcinoma) cell cultures were established under normoxic conditions (21% oxygen). HeLa cells increase VEGF production 4- to 5-fold in response to hypoxia. […] At the completion of treatment, the conditioned media were collected and the VEGF protein levels were assayed in an enzyme-linked immunosorbent assay (ELISA) with primary antibodies that recognize the soluble VEGF121 and VEGF165 isoforms (R & D Systems, Minneapolis, Minn., USA). To ensure that decreases in VEGF concentration were not due to cytotoxicity, cultures were assayed using a standard assay ([…]-GLO® Luminescent Cell Viability Assay; Promega, Madison, Wis., USA) that measures total cellular adenosine triphosphate (ATP) concentrations as an indicator of cell viability.

[2] = tested on: normal human keratinocyte; test: ATP viability assay in keratinocytes; assay type: cell-based; settings: any concentration tested
Description: Experimental Design. Nontransformed normal human keratinocyte cell cultures were established under normoxic conditions (21% oxygen). […] At the completion of treatment, cells were assessed for viability with an ATP assay and conditioned media were evaluated for VEGF protein levels by ELISA (as described in Section 9.1.1.1).

[3] = tested on: VEGF189 and VEGF206 isoforms; test: In-Cell Western and Western blot of matrix associated VEGF189/206 in HT1080 cells; assay type: cell-based, human; settings: normoxic, 48 hours
Description: Experimental Design. HT1080 (human fibrosacoma) cell cultures were established under normoxic conditions (21% oxygen). HT1080 cells constitutively overproduce VEGF even under normoxic conditions. […] At the completion of treatment, the cells were washed and harvested. Cells were incubated with a primary antibody that recognizes the VEGF189 and VEGF206 isoforms. Infrared-dye labeled antibodies were applied secondarily, and the amounts of VEGF189 and VEGF206 were determined using the IN-CELL WESTERN® assay and ODYSSEY® infrared imaging system (Li-Cor, Lincoln, Nebr., USA); results are expressed as percentage inhibition relative to vehicle treated controls. Conventional Western blotting using the same primary antibody was also performed to confirm the presence of the matrix associated isoforms; for these experiments actin was used as a loading control. Actin is a ubiquitous housekeeping protein that is not known to be post transcriptionally regulated.

LNCaP xenografts = test: Tumor growth inhibition in LNCaP prostate cancer xenografts; assay type: in vivo, athymic nude mice
Description: Experimental Design. The LNCaP cell line is derived from a lymph node metastasis.
Tumor size was measured by calipers at periodic intervals during the study. When the mean tumor size in a mouse exceeded 1500 mm^3, mice in that group were sacrificed and both tumor and plasma were assayed for pathologic VEGF concentration as described in Section 9.1.1.1.

[4] = tested on: SY5Y orthotopic xenografts; test: Orthotopic SY5Y neuroblastoma tumor model (kidney capsule), tumor weight; assay type: in vivo; settings: 5 weeks of treatment
Text: Experimental Design. In orthotopic tumor models, human tumor cells are implanted into the mouse in an organ that corresponds to the location from which the tumors arise. Such models may provide a better predictor of clinical efficacy than injection of tumors into the flanks of nude mice. See Hoffman, Invest. New Drugs 1999, 17(4):343-59. SY5Y neuroblastoma or SKNEP Ewing sarcoma tumor cells (1×10^6 cells/mouse) were implanted into the kidney capsule of female athymic nude mice according to published methods. See Huang et al., Proc. Natl. Acad. Sci. USA 2003, 100(13):7785-90. One week after implantation of each type of tumor, mice were divided into 2 groups and were administered a test Compound as shown in Table 21.
After 5 weeks of treatment, the mice were sacrificed, and the weights of the tumors were assessed.

[5] = Quantitative whole-body autoradiography tissue distribution of 14C-Compound #10; assay type: in vivo; settings: rats, single oral 50 mg/kg
Description: For the QWBA, the carcasses were prepared by immediately freezing them, embedding them in chilled carboxymethylcellulose, and freezing them into blocks. Appropriate cryomicrotome sections of the blocks at 40 μm thickness were collected on adhesive tape. Mounted sections were tightly wrapped and exposed on phosphorimaging screens along with plastic embedded autoradiographic standards. Exposed screens were scanned and the autoradiographic standard image data were sampled to create a calibrated standard curve. Specified tissues, organs, and fluids were analyzed.

HT1080 cells = test: Migration of cells out of re-plated HT1080 spheroids; assay type: cell-based, human
Description: Experimental Design. […] Pictures were then taken 48 hours to assess the migration and proliferation of the cells across the well's surface.

CYP2C9 = target: T1, CYP2C9 (Homo sapiens, UniProt P11712); test: CYP inhibition in human hepatic microsomes or recombinant isoenzymes: CYP2C9; assay type: in vitro ADME
T1 construct: host or cells: human hepatic microsomes or human recombinant isoenzymes
T1 sequence (P11712 whole entry): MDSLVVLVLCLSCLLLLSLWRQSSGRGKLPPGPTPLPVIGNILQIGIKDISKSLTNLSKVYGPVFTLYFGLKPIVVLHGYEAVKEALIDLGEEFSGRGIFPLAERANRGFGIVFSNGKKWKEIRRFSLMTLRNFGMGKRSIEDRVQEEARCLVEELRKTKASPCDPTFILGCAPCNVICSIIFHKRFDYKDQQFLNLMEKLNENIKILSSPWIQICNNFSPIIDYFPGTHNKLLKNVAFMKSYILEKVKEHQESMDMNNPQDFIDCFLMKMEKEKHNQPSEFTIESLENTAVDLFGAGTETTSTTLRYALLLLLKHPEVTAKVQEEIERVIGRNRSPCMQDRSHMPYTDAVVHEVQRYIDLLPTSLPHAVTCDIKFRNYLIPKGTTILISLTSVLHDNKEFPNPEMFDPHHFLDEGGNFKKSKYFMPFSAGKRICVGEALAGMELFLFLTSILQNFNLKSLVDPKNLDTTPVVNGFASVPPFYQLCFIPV
Text: It is possible that in certain clinical trial subjects, such agents may need to be adjusted for dosing or replaced by alternative agents that are not metabolized by CYP2D6, particularly when such agents may have a low therapeutic index.

[6] = tested on: Chinese hamster ovary (CHO) cells; test: Chromosome aberration study in CHO cells; assay type: cell-based; settings: with and without exogenous metabolic activation
Description: Genotoxicity was assessed in a battery of in vitro and in vivo studies that included a bacterial reverse mutation study, a chromosome aberration study in Chinese hamster ovary (CHO) cells, and a micronucleus study in rats by the oral route. The in vitro studies were performed in the presence and absence of an exogenous metabolic activation system.

## COc1ccc(C2c3[nH]c4ccc(Cl)cc4c3CCN2C(=O)Oc2ccc(Cl)cc2)cc1 (racemic) [Compound #10]
[1]
  EC50: < 8 nM
HeLa cells
  cytotoxicity (cell viability, ATP): No cytotoxicity was observed
[2]
  toxicity (viability, ATP assay): No toxicity was observed
[3]
  inhibition of matrix associated VEGF189 and VEGF206 isoforms (in words): potent concentration-dependent inhibition
LNCaP xenografts; 10 mg/kg M-W-F
  time to tumor progression (time to reach ≧1000 mm^3) (in words): prolonged
LNCaP xenografts; 10 mg/kg M-W-F, day of sacrifice
  intratumoral VEGF concentrations adjusted for tumor size (in words): reduced
LNCaP xenografts; LNCaP xenografts in male nude mice, 10 mg/kg oral M-W-F, adjusted for tumor size
  Mean % Inhibition of Intratumoral VEGF vs Vehicle at Sacrifice: 51^d %
[4]
  tumor growth (tumor weight) (in words): completely prevented growth
[5]
  blood-brain barrier penetration (in words): penetrates the blood-brain barrier
  signs of toxicity: no overt signs of toxicity
HT1080 cells; control spheroids re-plated in the presence of 50 nM
  migration of cells out of the spheroid (in words): blocked in their ability to migrate out of the spheroid
HT1080 cells; three-week exposure at 50 nM, re-plated in the absence of the compound
  proliferative and migratory capacity after exposure (in words): does not reduce either the proliferative or the migratory capacity
CYP2C9
  inhibition of CYP2C9 (in words): No meaningful inhibition
[6]
  genotoxic effects: no evidence of genotoxic effects
